Common to all, as to type: biochemical
For one experiment, the target named is HUMAN LUNG TRYPTASE
The experiment can be described thus: In vitro inhibition of human lung tryptase, rate constants by progress curve analysis. The following applies: nonlinear regression (ENZFITTER). How it is done:
Using standard in vitro methodology for determining inhibitory activity of tryptase (Journal of Biological Chemistry, Vol. 261, Jun. 5, pp. 7322-7379, 1986), the following results have been obtained:
^a Rate constants were determined by progress curve analysis using a
nonlinear regression program (ENZFITTER)

The test system of experiment [1] is human plasma. The experiment is described as follows: Anticoagulant effect in human plasma, activated partial thromboplastin time (aPTT). From the text: (§1) Anticoagulant data may be represented as follows:
Experiment [2] deals with human plasma. The experiment can be described thus: Anticoagulant effect in human plasma, thrombin time (TT).
Excerpt: as §1

In general, Ki refers to a measure of affinity in units of concentration, obtained from inhibition or displacement. The koff is a measure of how fast the partners let go of each other. A higher koff goes with fast dissociation. What is called kon is the second-order rate constant of association. Read a low kon as slower complex formation. As to `Cl.Cl.N=C(N)NCCCC(NC(=O)[C@@H]1CCCN1C(=O)[C@H]1Cc2ccccc2CN1)C(=O)C(F)(F)C(F)(F)F.O` (stereo partly drawn) [D-3-TIC--Pro--Arg--CF2 CF3, L-Prolinamide, N-[2-[3-[(aminoiminomethyl)amino]propyl]-3,3,4,4,4-pentafluoro-2-oxobutyl]-1-D-[(1,2,3,4-tetrahydro-3-isoquinolinyl)carbonyl]-, dihydrochloride, hydrate], on HUMAN LUNG TRYPTASE, the Ki came out at 75 nM, the koff was found to be 0.00034 s⁻¹ and the kon was 4700 ± 200 M⁻¹ s⁻¹.

As for `CC(=O)O.F.N=C(N)NCCCC(NC(=O)[C@@H]1CCCN1C(=O)[C@H](N)Cc1ccccc1)C(=O)C(F)(F)F.O` (stereo partly drawn) [D-Phe--Pro--Arg--CF3, L-Prolinamide, N-D-phenylalanyl-N-[1-[3-[(amino]iminomethyl)amino]propyl]-3,3,3-trifluoro-2-oxopropyl]-, hydrofluoride, acetate, hydrate], the Ki on HUMAN LUNG TRYPTASE came to 500 nM.

In the experiment with HUMAN LUNG TRYPTASE, `CC(=O)O.F.N=C(N)NCCCC(NC(=O)[C@@H]1CCCN1C(=O)[C@H](N)Cc1ccccc1)C(=O)C(F)(F)F.O` (stereo partly drawn) [D-Phe--Pro--Arg--CF3] registered a koff of 0.00015 s⁻¹ and a kon of 290 ± 20 M⁻¹ s⁻¹. Moreover, the “ID2 a PTT (amount required for doubling the clotting time)” value in the experiment on human plasma [1] was found to be 148 µM. Besides, the “ID2 TT (amount required for doubling the clotting time)” value with human plasma [2] amounted to 43 µM.

At HUMAN LUNG TRYPTASE, “L-Prolinamide, N-methyl-D-phenylalanyl-N-[1-[3-[(aminoiminomethyl) amino]propyl]-3,3,3-trifluoro-2-oxopropyl]-, dihydrochloride, hydrate [D-CH3 Phe--Pro--Arg--CF3]” yielded a Ki of 80 nM, a koff of 1.5e-05 s⁻¹ and a kon of 200 ± 10 M⁻¹ s⁻¹. Besides, the “ID2 a PTT (amount required for doubling the clotting time)” value in the experiment with human plasma [1] was found to be 218 µM. Further, in the experiment on human plasma [2], the “ID2 TT (amount required for doubling the clotting time)” value is 108 µM.

The values above are taken from patent US5563156A, “Thrombin inhibitors” (Merrell Pharmaceuticals Inc., priority 1991, dated 1996).
